Here are results for four compounds from ChEMBL document CHEMBL1201862, “PubChem BioAssay data set” (2004).

Each structure is given as a SMILES string. The source made the active and inactive calls. Bounds are passed on as bounds.

Experiment [1] addresses T1, Aminopeptidase N (Plasmodium falciparum FcB1/Columbia, UniProt O96935).
T1 sequence (O96935 whole entry): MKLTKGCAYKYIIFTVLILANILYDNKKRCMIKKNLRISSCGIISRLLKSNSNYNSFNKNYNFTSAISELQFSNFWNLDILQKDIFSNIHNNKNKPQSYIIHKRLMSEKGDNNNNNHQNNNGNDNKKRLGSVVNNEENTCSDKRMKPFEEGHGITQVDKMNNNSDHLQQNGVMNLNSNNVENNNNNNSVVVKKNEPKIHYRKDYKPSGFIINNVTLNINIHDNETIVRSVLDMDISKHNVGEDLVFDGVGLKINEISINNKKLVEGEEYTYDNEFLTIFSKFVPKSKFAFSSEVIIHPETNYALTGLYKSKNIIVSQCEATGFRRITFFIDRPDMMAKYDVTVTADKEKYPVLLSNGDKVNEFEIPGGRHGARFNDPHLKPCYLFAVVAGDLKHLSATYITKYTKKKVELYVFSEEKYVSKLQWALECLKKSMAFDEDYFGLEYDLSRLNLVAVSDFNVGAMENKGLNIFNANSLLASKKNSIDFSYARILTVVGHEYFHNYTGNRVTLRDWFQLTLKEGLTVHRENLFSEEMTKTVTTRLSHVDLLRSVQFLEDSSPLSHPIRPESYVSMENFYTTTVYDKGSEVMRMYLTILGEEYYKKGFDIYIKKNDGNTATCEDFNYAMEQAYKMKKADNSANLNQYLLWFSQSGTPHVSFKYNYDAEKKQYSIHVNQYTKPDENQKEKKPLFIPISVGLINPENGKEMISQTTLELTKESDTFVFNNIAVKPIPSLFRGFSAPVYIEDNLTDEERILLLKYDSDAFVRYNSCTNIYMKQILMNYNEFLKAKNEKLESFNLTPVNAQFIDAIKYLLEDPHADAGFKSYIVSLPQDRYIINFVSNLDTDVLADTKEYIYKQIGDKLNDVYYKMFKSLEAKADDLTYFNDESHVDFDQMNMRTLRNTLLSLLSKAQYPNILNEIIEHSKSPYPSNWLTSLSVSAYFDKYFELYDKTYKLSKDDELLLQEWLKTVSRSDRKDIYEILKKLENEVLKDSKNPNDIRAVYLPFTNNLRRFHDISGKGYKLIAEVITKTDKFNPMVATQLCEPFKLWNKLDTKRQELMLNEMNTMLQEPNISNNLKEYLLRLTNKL
In words: P. falciparum M1AAP inhibitors, biochemical, fluorogenic H-Leu-NHMec substrate, 1536-well (AID 1445). More on the design: species or system Plasmodium falciparum 3D7, 3D7.

Experiment [2] has as its target T2, Replicative DNA helicase DnaB (Mycobacterium tuberculosis, UniProt P9WMR3).
T2 sequence (P9WMR3 whole entry): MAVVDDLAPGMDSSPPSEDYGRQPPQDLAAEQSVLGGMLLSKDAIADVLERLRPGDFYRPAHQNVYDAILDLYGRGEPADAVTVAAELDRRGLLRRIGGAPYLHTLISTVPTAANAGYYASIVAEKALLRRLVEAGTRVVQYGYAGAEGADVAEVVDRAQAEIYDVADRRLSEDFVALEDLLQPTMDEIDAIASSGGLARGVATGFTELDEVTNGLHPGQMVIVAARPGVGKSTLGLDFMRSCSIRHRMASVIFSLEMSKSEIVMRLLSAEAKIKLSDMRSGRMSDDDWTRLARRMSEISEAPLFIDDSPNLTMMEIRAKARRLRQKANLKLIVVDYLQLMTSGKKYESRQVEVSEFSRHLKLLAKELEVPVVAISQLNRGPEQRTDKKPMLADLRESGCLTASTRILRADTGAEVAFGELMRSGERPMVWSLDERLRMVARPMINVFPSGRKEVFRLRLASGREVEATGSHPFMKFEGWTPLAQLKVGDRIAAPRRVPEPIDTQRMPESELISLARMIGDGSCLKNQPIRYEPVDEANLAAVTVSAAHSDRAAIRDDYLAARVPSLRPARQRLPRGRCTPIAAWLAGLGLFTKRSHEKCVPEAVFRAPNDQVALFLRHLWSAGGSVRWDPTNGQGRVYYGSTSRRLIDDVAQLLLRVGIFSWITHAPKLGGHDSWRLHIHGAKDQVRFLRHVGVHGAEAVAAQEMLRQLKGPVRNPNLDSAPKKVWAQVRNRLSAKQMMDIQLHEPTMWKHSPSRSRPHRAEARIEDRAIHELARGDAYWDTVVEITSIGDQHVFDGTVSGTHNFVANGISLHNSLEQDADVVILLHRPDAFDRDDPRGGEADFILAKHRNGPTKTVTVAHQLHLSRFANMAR
Description: DnaB intein splicing inhibitors, dose response, biochemical, cell-free fluorescence (AID 449749). It is filed as functional.

A short description of experiment [3]: growth suppression of PTEN-null colon cells, dose response, cell-based, HCT116 PTEN knockout (AID 1047).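 Note: HCT116 colon tumor cells with PTEN knocked out; cells exposed to compound for 60 hours before readout; potency for loss of cell viability measured by luminescence.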 It is filed as functional.
Experiment [4] can be described thus: growth suppression of beta-catenin-knockout colon cells, dose response, cell-based, HCT116, human colon tumor (AID 1045).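 Note: HCT116 colon tumor cells with beta catenin knocked out; cells exposed to compound for 60 hours.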 It is filed as functional.
Experiment [5] has as its target T3, Bcl-2-like protein 10 (Homo sapiens, UniProt Q9HD36).
T3 sequence (Q9HD36 whole entry): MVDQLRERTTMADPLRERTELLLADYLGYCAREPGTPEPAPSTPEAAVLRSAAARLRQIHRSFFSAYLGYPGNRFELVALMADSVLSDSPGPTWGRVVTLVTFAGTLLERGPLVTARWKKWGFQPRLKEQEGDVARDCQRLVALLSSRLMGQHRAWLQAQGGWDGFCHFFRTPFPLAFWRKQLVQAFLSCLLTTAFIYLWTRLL
In words: displacers of TR3 peptide from Bcl-B, primary screen, selectivity assay for Bfl-1 inhibitor project, biochemical, fluorescence polarization, FITC-TR3 peptide (AID 748).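 Note: fluorescence polarization from a fluorescein-labelled TR3 peptide binding purified Bcl-B.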

The target in experiment [6] is T4, Protein RecA (Mycobacterium tuberculosis, UniProt P9WHJ3).
T4 sequence (P9WHJ3 whole entry): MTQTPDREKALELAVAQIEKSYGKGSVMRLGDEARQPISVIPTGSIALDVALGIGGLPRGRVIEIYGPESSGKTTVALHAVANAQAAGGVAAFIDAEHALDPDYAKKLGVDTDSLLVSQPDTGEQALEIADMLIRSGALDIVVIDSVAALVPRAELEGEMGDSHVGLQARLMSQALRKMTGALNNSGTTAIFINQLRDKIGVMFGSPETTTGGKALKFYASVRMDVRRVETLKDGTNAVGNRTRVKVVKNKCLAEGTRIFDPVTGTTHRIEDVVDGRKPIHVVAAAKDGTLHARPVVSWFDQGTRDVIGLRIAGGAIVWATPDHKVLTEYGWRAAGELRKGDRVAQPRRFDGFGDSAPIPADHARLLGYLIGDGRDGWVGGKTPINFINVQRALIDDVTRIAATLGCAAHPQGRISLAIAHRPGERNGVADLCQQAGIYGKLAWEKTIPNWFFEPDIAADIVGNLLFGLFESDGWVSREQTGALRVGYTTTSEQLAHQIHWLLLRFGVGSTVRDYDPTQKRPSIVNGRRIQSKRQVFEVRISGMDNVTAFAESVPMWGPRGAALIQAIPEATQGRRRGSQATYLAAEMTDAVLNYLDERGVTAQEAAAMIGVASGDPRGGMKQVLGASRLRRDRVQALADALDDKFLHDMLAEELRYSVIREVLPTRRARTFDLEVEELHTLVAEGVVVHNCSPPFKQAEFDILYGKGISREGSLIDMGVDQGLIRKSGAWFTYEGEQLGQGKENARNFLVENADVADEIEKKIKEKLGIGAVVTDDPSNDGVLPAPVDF
In words: Fluorescence Cell-Free Homogeneous Dose Retest to Identify Inhibitors of RecA-Intein Splicing Activity. [Related pubchem assays (depositor defined):AID2097, AID2223, AID489010, AID492950]. The experiment is classed as functional.

The nature of experiment [7]: Intein inhibitors as potential Tuberculosis drugs, a cytotoxicity screen. [Related pubchem assays (depositor defined):AID2221, AID2223, AID434968, AID435010, AID449749, AID449750, AID489010]. The experiment is classed as functional.
Experiment [8] in a line: HEp-2 cell cytotoxicity, dose response, cytotoxicity control for RSV inhibitor project, HTS (AID 2410). The experiment is classed as functional. As to conditions: human respiratory syncytial virus.
In experiment [9] the target is T5, Coagulation factor XII (Homo sapiens, UniProt P00748).
T5 sequence (P00748 whole entry): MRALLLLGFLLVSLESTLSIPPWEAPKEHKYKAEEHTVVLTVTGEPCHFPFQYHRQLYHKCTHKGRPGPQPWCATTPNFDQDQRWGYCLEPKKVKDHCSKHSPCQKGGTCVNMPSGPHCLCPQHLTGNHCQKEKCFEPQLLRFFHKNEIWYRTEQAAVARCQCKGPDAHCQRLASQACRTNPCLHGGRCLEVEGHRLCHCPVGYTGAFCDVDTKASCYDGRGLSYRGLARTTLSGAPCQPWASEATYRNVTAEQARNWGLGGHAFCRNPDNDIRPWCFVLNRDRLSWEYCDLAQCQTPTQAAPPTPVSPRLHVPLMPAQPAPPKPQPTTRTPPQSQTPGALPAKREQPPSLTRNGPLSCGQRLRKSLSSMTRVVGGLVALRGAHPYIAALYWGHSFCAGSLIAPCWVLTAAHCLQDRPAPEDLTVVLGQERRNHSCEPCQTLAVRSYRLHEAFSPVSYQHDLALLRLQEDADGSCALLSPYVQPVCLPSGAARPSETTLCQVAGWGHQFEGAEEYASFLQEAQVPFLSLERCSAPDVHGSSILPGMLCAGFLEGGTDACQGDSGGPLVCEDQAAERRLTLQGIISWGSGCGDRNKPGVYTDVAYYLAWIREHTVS
Description: Factor XIIa Dose Response Confirmation from Single Well HTS. [Related pubchem assays (depositor defined):AID701]. The experiment is classed as functional.

Experiment [10] addresses DNA damage-inducible transcript 3 protein (Mus musculus, UniProt P35639). The experiment is classed as functional, Cricetulus griseus.
Experiment [11] is described as follows: Luminescence Cell-Based Dose Retest to Confirm Inhibitors of Cancer Stem Cells. [Related pubchem assays (depositor defined):AID2717, AID2721]. The experiment is classed as functional. As to conditions: Homo sapiens.
Experiment [12] concerns the target X-box-binding protein 1 (Homo sapiens, UniProt P17861). The experiment is classed as functional, Cricetulus griseus.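 Note: confirmatory dose-response counter-screen serving a CHOP assay.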
Experiment [13] concerns the target T6, Cannabinoid receptor 1 (Homo sapiens, UniProt P21554). Description: SAR analysis of antagonists of the Cannabinoid Receptor 1 using an Image-Based Assay - Set 3. [Related pubchem assays (depositor defined):AID1961, AID1965]. The experiment is classed as functional.
Experiment [14] concerns the target T7, G-protein coupled receptor 35 (Homo sapiens, UniProt Q9HC97). Description: SAR analysis of Agonists of the GPR35 Receptor using an Image-Based Assay - Set 3. [Related pubchem assays (depositor defined):AID1961, AID1965]. It is filed as functional.
Experiment [15] deals with T8, Cannabinoid receptor 2 (Homo sapiens, UniProt P34972). Description: SAR analysis of agonists of the Cannabinoid Receptor 2 using an Image-Based Assay - Set 2. [Related pubchem assays (depositor defined):AID1961, AID1965]. It is filed as functional.
T8 sequence (P34972 whole entry): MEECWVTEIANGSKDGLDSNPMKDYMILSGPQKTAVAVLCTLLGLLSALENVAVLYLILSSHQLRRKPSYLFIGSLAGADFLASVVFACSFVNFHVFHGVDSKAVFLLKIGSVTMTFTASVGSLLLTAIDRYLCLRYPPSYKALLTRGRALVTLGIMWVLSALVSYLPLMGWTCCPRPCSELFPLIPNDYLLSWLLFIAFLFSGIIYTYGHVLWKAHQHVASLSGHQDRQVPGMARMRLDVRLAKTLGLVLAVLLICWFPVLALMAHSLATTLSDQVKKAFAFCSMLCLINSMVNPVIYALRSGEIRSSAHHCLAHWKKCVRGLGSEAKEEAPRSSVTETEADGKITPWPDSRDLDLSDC
Experiment [16] addresses T8, Cannabinoid receptor 2. In words: SAR analysis of antagonists of the Cannabinoid Receptor 2 using an Image-Based Assay - Set 2. [Related pubchem assays (depositor defined):AID1961, AID1965]. The experiment is classed as functional.
Experiment [17] has as its target T7, G-protein coupled receptor 35. Description: SAR analysis of Antagonists of the GPR35 Receptor using an Image-Based Assay - Set 4. [Related pubchem assays (depositor defined):[…]]. The experiment is classed as functional.
In experiment [18] the target is T6, Cannabinoid receptor 1. Description: SAR analysis of agonists of the Cannabinoid Receptor 1 using an Image-Based Assay - Set 3. [Related pubchem assays (depositor defined):AID1961, AID1965]. It is filed as functional.
The target in experiment [19] is G-protein coupled receptor 55 (Homo sapiens, UniProt Q9Y2T6). Description: SAR analysis of selective Agonists of GPR55 using an Image-Based Assay - Set 2. [Related pubchem assays (depositor defined):AID1961, AID1965]. The experiment is classed as functional.
G-protein coupled receptor 55, sequence (Q9Y2T6 whole entry): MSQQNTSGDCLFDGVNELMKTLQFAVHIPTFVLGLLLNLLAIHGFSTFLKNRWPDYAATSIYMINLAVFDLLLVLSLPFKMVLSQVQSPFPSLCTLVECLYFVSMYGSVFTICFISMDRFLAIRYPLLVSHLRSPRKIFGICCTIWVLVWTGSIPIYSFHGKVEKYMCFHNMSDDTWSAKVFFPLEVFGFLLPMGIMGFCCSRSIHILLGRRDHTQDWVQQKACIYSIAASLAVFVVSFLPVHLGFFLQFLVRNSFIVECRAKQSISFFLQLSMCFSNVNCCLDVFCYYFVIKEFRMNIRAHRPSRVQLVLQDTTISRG

T7 sequence (Q9HC97 whole entry): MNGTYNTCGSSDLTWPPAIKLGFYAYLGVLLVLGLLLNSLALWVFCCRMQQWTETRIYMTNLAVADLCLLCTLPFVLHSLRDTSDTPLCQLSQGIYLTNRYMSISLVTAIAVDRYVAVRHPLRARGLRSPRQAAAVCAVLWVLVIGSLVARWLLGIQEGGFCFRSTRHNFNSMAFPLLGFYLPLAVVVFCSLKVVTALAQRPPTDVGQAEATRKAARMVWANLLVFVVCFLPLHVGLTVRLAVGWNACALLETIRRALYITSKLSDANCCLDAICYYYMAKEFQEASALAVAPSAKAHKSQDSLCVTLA
T6 sequence (P21554 whole entry): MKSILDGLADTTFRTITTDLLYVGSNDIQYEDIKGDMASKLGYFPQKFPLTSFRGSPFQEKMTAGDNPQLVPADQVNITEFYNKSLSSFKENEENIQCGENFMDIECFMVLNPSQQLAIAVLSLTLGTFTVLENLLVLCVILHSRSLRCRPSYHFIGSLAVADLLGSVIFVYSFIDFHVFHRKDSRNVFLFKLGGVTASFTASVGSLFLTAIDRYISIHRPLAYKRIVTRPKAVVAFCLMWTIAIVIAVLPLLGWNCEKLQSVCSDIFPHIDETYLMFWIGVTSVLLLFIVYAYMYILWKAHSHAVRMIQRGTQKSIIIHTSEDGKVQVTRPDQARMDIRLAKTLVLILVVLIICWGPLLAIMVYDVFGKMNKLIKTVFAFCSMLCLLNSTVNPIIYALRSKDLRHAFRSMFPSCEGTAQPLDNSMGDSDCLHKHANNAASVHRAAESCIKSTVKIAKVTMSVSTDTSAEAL
X-box-binding protein 1, sequence (P17861 whole entry): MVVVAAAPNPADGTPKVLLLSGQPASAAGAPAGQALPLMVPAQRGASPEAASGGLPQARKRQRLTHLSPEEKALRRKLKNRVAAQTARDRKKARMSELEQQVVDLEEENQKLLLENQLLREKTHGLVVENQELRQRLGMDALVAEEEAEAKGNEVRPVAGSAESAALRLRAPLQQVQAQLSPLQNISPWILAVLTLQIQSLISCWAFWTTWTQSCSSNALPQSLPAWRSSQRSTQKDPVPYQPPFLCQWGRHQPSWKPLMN
DNA damage-inducible transcript 3 protein, sequence (P35639 whole entry): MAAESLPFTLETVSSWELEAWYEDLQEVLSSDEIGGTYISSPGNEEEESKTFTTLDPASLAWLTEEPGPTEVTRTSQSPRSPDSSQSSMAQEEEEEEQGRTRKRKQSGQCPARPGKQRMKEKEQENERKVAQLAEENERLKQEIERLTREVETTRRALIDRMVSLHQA

Broadly, the IC50 is the concentration that gives 50% inhibition. As a reminder, the AC50 is the midpoint of the concentration-response curve, whichever way the signal moves. As usually defined, the EC50 is the concentration needed to bring the measured effect to its halfway point. One may read the CC50 as the concentration that lowers cell viability or growth by half. As to `Cc1ccc(O)c(/N=C/C2=C(O)c3ccccc3C2=O)c1`, the figures for the IC50 in [1] and in [5] were 71.9 µM (active) and 44.7 µM (active), respectively. Also, the AC50 in experiment [2] was 0.4 µM (active). For the same compound, the values for the EC50 in [3], in [4] and in experiment [6] were 32 µM (active), 22.2 µM (active) and 0.216 µM (active), respectively. In addition, in [7], the CC50 is > 40 µM (active).
Turning to `Cc1ccc(-c2cc(-c3ccccc3)c3c(N)c(S(C)(=O)=O)sc3n2)cc1`, the cytotoxic concentration (CC50) in experiment [8] was 48.4 µM (active). Moreover, the IC50 in experiment [9] was > 50 µM (inactive).
As to `CCCc1ccc(O)c(/N=C/c2cc(Br)cc(OCC)c2O)c1`, the “Absolute IC50 (CHOP)” value in experiment [10] is 10 µM. Further, the AC50 in experiment [11] was 9.69 µM (active). Further, in experiment [12], the “Absolute IC50 (XBP1)” value was 10 µM.
Take `Cc1ccc2cc(C)c3nnc(SCC(=O)N(C)c4nc(-c5ccccc5)cs4)n3c2c1`: the IC50 in [13] was 4.44 µM (active); in experiment [16], > 32 µM (inactive); in experiment [17] it was > 32 µM (inactive). The EC50 in experiment [14], in experiment [15], in experiment [18] and in experiment [19] was > 32 µM (inactive) throughout.
